How the values were obtained:
Format in all cases: in vivo
[1] = system: IL-12; experiment: IL-12 levels in sera upon i.v. glycolipid administration to BALB/c mice (ELISA); parameters: IL-12 levels, test 1 / IL-12 levels, test 2 / IL-12 levels, average / IL-12 levels, Total: unit not given here
Protocol: (§1) Five- to six-week-old female C57BL/6 mice and BALB/c mice were purchased from Taconic. Each glycolipid was stored at 1 mg/ml in 100% DMSO. Mice were injected intravenously with 1 μg of each glyocolipid diluted in 200 μL sterile phosphate buffered saline (PBS). At indicated time points, sera were collected from each animal, and concentrations of IFN-γ, IL-4, and IL-12 in the sera were evaluated by enzyme-linked immunosorbent assay (ELISA). Serum concentrations of IFN-γ, IL-4, and IL-12 were evaluated using an ELISA kit (eBioscience, San Diego, Calif.). Briefly, 96 well flat-bottom ELISA plates (NUNC) were coated with capture antibody according to the manufacture's recommendation and incubated overnight at 4° C. The plates were washed with PBS+0.05% Tween 20 (PBS-T), then incubated with manufacturer provided blocking solution for 1 hr at room temperature to block non-specific binding sites. After washing with PBS-T, sera diluted 1:10 was added to the wells and incubated for 2 hrs at room temperature. Plates were then incubated at room temperature for 1 hr with biotintylated detection antibody, washed, incubated with avidin conjugated to horse radish peroxidase (HRP) for 30 min at room temperature, washed, and finally incubated with tetramethylbenzidine substrate solution in the dark for 10 minutes at room temperature. The antibodies, avidin-HRP, and substrate solution were all diluted according to the manufacture's recommendation. Reactions were stopped with 2.0N sulfuric acid and the cytokine concentration in each well was determined by comparing the absorbance at 450 nm in each well to known standards. The levels of Th1- and Th2-type cytokines were determined in two different genetic backgrounds, i.e., in C57BL/6 mice and BALB/c mice. The following compounds were administered: A=compound (A-1 trans-conformer), B=compound (A-2), C=compound (A-3), D=compound (A-4), E=compound (A-5), Z=control (PBS alone), CRONY=α-C-GalCer, KRN=α-GalCer, GCK109 (A-1 trans-conformer), GCK151 (A-1 cis-conformer), GCK152 (A-7). The levels of cytokines were measured at 0, 2, 6, 12, 24, 48, and 72 hours after the compound administration. The levels of Th1-type cytokines IFN-γ and IL-12 are summarized in FIGS. 2A-C and 3A-C, respectively. Table 7 provides IFN-γ/IL-4 and IL-12/IL-4 ratios for various compounds, which can be used as indicators of their ability to selectively stimulate Th1-type immune responses.

[2] = system: IL-4; experiment: IL-4 levels in sera upon i.v. glycolipid administration to C57BL/6 mice (ELISA); parameters: unit not given here
Protocol: as §1

[3] = system: IFN-γ; experiment: IFN-γ levels in sera upon i.v. glycolipid administration to C57BL/6 mice (ELISA); parameters: IFN-γ levels, test 1 / IFN-γ levels, test 2 / IFN-γ levels, average / IFN-γ levels, Total / IFN-γ (B6): unit not given here
Protocol: as §1

[4] = system: IL-4; experiment: IL-4 levels in sera upon i.v. glycolipid administration to BALB/c mice (ELISA); parameters: unit not given here
Protocol: as §1

CCCCCCCCCCCCCCCCCCCCCCCCCC(=O)N[C@@H](CO[C@H]1O[C@H](CO)[C@H](O)[C@H](O)[C@H]1O)[C@H](O)[C@H](O)CCCCCCCCCCCCCC [KRN, (2S,3S,4R)-1-O-(α-D-galactopyranosyl)-2-(N-hexacosanoylamino)-1,3,4-,-octadecanetriol, reference compound]
IL-12/IL-4 (BALB/c) ([1]; ratio calculated from Tables 1-6): 2
IL-12 levels, average ([1]; serum, hour 0): 5
IL-12 levels, test 1 ([1]; serum, hour 0): 5
IL-12 levels, test 2 ([1]; serum, hour 0): 5
IL-12 levels, average ([1]; serum, hour 2): 124
IL-12 levels, test 1 ([1]; serum, hour 2): 69
IL-12 levels, test 2 ([1]; serum, hour 2): 179
IL-12 levels, average ([1]; serum, hour 6): 3067.5
IL-12 levels, test 1 ([1]; serum, hour 6): 2567
IL-12 levels, test 2 ([1]; serum, hour 6): 3568
IL-12 levels, average ([1]; serum, hour 12): 437.5
IL-12 levels, test 1 ([1]; serum, hour 12): 282
IL-12 levels, test 2 ([1]; serum, hour 12): 593
IL-12 levels, average ([1]; serum, hour 24): 265.5
IL-12 levels, test 1 ([1]; serum, hour 24): 119
IL-12 levels, test 2 ([1]; serum, hour 24): 412
IL-12 levels, average ([1]; serum, hour 48): 68
IL-12 levels, test 1 ([1]; serum, hour 48): 57
IL-12 levels, test 2 ([1]; serum, hour 48): 79
IL-12 levels, average ([1]; serum, hour 72): 61
IL-12 levels, test 1 ([1]; serum, hour 72): 57
IL-12 levels, test 2 ([1]; serum, hour 72): 65
IL-12 levels, Total ([1]; serum, total over hours 0-72): 4030
IL-4 level, average ([2]; hour 0): 46
IL-4 level, test 1 ([2]; hour 0): 46
IL-4 level, test 2 ([2]; hour 0): 46
IL-4 level, average ([2]; hour 2): 3915
IL-4 level, test 1 ([2]; hour 2): 3584
IL-4 level, test 2 ([2]; hour 2): 4246
IL-4 level, average ([2]; hour 6): 183
IL-4 level, test 1 ([2]; hour 6): 122
IL-4 level, test 2 ([2]; hour 6): 244
IL-4 level, average ([2]; hour 12): 102.5
IL-4 level, test 1 ([2]; hour 12): 103
IL-4 level, test 2 ([2]; hour 12): 102
IL-4 level, average ([2]; hour 24): 18
IL-4 level, test 1 ([2]; hour 24): 20
IL-4 level, test 2 ([2]; hour 24): 16
IL-4 level, average ([2]; hour 48): 1
IL-4 level, test 1 ([2]; hour 48): 2
IL-4 level, test 2 ([2]; hour 48): 0
IL-4 level, average ([2]; hour 72): 0.5
IL-4 level, test 1 ([2]; hour 72): 0
IL-4 level, test 2 ([2]; hour 72): 1
IL-4 level, Total ([2]; total over hours 0-72): 4267
IFN-γ/IL-4 (B6) ([3]; C57BL/6, ratio calculated from Tables 1-6): 3
IFN-γ levels, average ([3]; C57BL/6, serum, hour 0): 31
IFN-γ levels, test 1 ([3]; C57BL/6, serum, hour 0): 31
IFN-γ levels, test 2 ([3]; C57BL/6, serum, hour 0): 31
IFN-γ levels, average ([3]; C57BL/6, serum, hour 2): 874.5
IFN-γ levels, test 1 ([3]; C57BL/6, serum, hour 2): 938
IFN-γ levels, test 2 ([3]; C57BL/6, serum, hour 2): 811
IFN-γ levels, average ([3]; C57BL/6, serum, hour 6): 1919
IFN-γ levels, test 1 ([3]; C57BL/6, serum, hour 6): 1811
IFN-γ levels, test 2 ([3]; C57BL/6, serum, hour 6): 2027
IFN-γ levels, average ([3]; C57BL/6, serum, hour 12): 5352.5
IFN-γ levels, test 1 ([3]; C57BL/6, serum, hour 12): 5179
IFN-γ levels, test 2 ([3]; C57BL/6, serum, hour 12): 5526
IFN-γ levels, average ([3]; C57BL/6, serum, hour 24): 2216
IFN-γ levels, test 1 ([3]; C57BL/6, serum, hour 24): 2214
IFN-γ levels, test 2 ([3]; C57BL/6, serum, hour 24): 2218
IFN-γ levels, average ([3]; C57BL/6, serum, hour 48): 126
IFN-γ levels, test 1 ([3]; C57BL/6, serum, hour 48): 252
IFN-γ levels, test 2 ([3]; C57BL/6, serum, hour 48): 0
IFN-γ levels, average ([3]; C57BL/6, serum, hour 72): 166
IFN-γ levels, test 1 ([3]; C57BL/6, serum, hour 72): 332
IFN-γ levels, test 2 ([3]; C57BL/6, serum, hour 72): 0
IFN-γ levels, Total ([3]; C57BL/6, serum, total over hours 0-72): 10686
IL-4 level, average ([4]; hour 0): 27
IL-4 level, test 1 ([4]; hour 0): 27
IL-4 level, test 2 ([4]; hour 0): 27
IL-4 level, average ([4]; hour 2): 1690
IL-4 level, test 1 ([4]; hour 2): 1809
IL-4 level, test 2 ([4]; hour 2): 1571
IL-4 level, average ([4]; hour 6): 204
IL-4 level, test 1 ([4]; hour 6): 214
IL-4 level, test 2 ([4]; hour 6): 194
IL-4 level, average ([4]; hour 12): 89
IL-4 level, test 1 ([4]; hour 12): 78
IL-4 level, test 2 ([4]; hour 12): 100
IL-4 level, average ([4]; hour 24): 50.5
IL-4 level, test 1 ([4]; hour 24): 51
IL-4 level, test 2 ([4]; hour 24): 50
IL-4 level, average ([4]; hour 48): 44
IL-4 level, test 1 ([4]; hour 48): 46
IL-4 level, test 2 ([4]; hour 48): 42
IL-4 level, average ([4]; hour 72): 12
IL-4 level, test 1 ([4]; hour 72): 12
IL-4 level, test 2 ([4]; hour 72): 12
IL-4 level, Total ([4]; total over hours 0-72): 2117

From patent US8883745B2, “C—glycolipids with enhanced Th-1 profile” (New York University, priority 2006, dated 2014)
